The results in this text go back to Sander's compilation of Henry's law constants (doi:10.1111/j.1365-2621.1980.tb00916.x).

The series in a line: Henry solubility constant Hcp at 298.15 K (mol/(m3 Pa)). The following applies: reference: Mazza (1980).
For `C=CCSSCC=C` [4,5-dithia-1,7-octadiene], the “Henry solubility constant Hcp” value came to 0.0075. For `CCCSC` [methyl propyl sulfide], the “Henry solubility constant Hcp” value amounted to 0.0043. For `CCCS` [1-propanethiol], the “Henry solubility constant Hcp” value turned out to be 0.0009. Then `C=CCSC` [allyl methyl sulfide], with 0.005. Then `CCO` [ethanol], with 6.2; and `Cc1ccc(C)s1` [2,5-dimethylthiophene], with 0.0037. Then `CCCSSCCC` [dipropyl disulfide], with 0.018. As to `C=CCSCC=C` [3,3'-thiobis-1-propene], the “Henry solubility constant Hcp” value was 0.0071. The figure for `CCCO` [1-propanol] is 3.7.

Consider `CC(C)O` [2-propanol], for which the “Henry solubility constant Hcp” value came to 2.1.
